Data published in ChEMBL document CHEMBL3259626, “Discovery of the first potent and selective Mycobacterium tuberculosis Zmp1 inhibitor” (Bioorg Med Chem Lett, 2014).

Legend:
[1] = test system: Mycobacterium tuberculosis; experiment: Inhibition of full length Mycobacterium tuberculosis recombinant ZMP1 expressed in Escherichia coli BL21(DE3) using MCA-Pro-Leu-Gly-Leu-Dpa-Ala-Arg-NH2 as substrate at 100 uM by fluorometric analysis relative to control
[2] = Competitive inhibition of full length Mycobacterium tuberculosis recombinant ZMP1 expressed in Escherichia coli BL21(DE3) using MCA-Pro-Leu-Gly-Leu-Dpa-Ala-Arg-NH2 as substrate by sigma plot analysis
[3] = Selectivity index, ratio of Ki for human neprilysin to Ki for full length Mycobacterium tuberculosis recombinant ZMP1
Neprilysin = Neprilysin (Homo sapiens, UniProt P08473); experiment: Inhibition of human neprilysin by fluorometric analysis
Chain of Neprilysin (P08473 whole entry): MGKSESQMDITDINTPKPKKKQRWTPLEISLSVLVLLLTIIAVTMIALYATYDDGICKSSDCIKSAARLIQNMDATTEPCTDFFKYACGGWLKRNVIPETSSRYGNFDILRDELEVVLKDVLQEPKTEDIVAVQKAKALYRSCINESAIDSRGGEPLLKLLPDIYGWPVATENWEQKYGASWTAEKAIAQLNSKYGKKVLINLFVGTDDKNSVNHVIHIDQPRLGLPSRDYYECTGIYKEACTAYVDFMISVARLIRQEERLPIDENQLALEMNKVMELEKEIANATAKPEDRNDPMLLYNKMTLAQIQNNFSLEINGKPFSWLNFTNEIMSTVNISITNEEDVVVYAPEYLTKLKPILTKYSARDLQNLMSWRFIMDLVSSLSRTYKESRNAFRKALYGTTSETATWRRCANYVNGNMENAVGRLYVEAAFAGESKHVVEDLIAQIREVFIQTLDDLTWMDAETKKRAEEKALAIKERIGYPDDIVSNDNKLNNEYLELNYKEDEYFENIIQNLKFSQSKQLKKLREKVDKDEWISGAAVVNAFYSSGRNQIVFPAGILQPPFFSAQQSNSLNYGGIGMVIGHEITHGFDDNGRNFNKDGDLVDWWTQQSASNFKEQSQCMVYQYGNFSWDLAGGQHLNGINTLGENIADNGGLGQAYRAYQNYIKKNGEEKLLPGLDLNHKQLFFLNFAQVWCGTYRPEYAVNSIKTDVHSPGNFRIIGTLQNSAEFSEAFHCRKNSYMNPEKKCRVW

Structure (SMILES) | inhibition [1] | Ki [2] | also measured
O=S(=O)(O)CCCSc1sc2ccc(Cl)cc2[n+]1CCCS(=O)(=O)O | 78% | 32.9 µM | –
Cn1c(=O)c2c(nc(SCC(=O)O)n2Cc2ccc(Cl)cc2)n(C)c1=O | 28% | – | –
O=C(NC(Cc1ccccc1)C(=O)O)/C(=C/c1cccc([N+](=O)[O-])c1)NC(=O)c1ccco1 (stereo not drawn) | 54% | – | –
O=C1/C(=C\c2ccc(-c3cccc([N+](=O)[O-])c3)o2)SC(=S)N1CCS(=O)(=O)O | – | 32.2 µM | –
O=C(O)c1ccc(/C=C2/SC(=S)N(C(Cc3ccccc3)C(=O)O)C2=O)cc1 (racemic) | – | 0.39 µM | –
O=C(O)CC(C(=O)O)N1C(=O)/C(=C\c2ccc(O)c(O)c2)SC1=S (stereo not drawn) | – | 2.7 µM | –
COC(=O)c1ccc(/C=C2\SC(=S)N([C@H](Cc3ccccc3)C(=O)O)C2=O)cc1 | – | 5.7 µM | –
O=C(OCc1ccccc1)c1ccc(/C=C2\SC(=S)N([C@H](Cc3ccccc3)C(=O)O)C2=O)cc1 | – | 1.8 µM | –
C=Cc1[nH]c(C(C)NC(=O)c2ccc(=O)n(CC(=O)NCc3ccc(F)cc3)c2)nc1C (stereo not drawn) | 16% | – | –
O=C(O)c1ccc(/C=C2/SC(=S)N([C@H](Cc3ccccc3)C(=O)O)C2=O)cc1 | – | 0.094 µM | Ratio Ki [3]: 266; Ki (Neprilysin): 25 µM
O=C(O)CN1C(=O)/C(=C2/Sc3ccccc3N2CCCS(=O)(=O)O)SC1=S | – | 4.8 µM | –
O=C(O)CCC(C(=O)O)N1C(=O)/C(=C\c2ccc(-c3cccc(Cl)c3Cl)o2)SC1=S (stereo not drawn) | – | 3.7 µM | –
O=C(O)c1ccc(/C=C2/SC(=S)N([C@@H](Cc3ccccc3)C(=O)O)C2=O)cc1 | – | 1.7 µM | Ratio Ki [3]: 21.7; Ki (Neprilysin): 37 µM
